This is an account of results in patent US12083182B2, “Controlled-release CNP agonists with increased NEP stability” (ASCENDIS PHARMA GROWTH DISORDERS A/S, priority 2016, dated 2024).

For data set [1] the following is noted: in vivo; cited from earlier work.
The conditions of data set [2]: doses up to 15 μg/kg, healthy volunteers; cited from earlier work.
Data set [3] in a line: Evaluation of cardiovascular effects in the conscious telemetered mouse (subcutaneous administration). It counts as in vivo, Crl:CD1(ICR) mice. The note with it: 800 μg CNP-38 (eq)/kg sc. The method, then:
Male Crl:CD1(ICR) mice (age range 8-13 weeks and body weight range 27.3-35.6 g at start of dosing) were surgically implanted with a TA11PA-C10 telemetry transmitter (Data Sciences International (DSI)) in the carotid artery. The body of the transmitter was placed subcutaneously in the lateral flank of the mouse. The mice were dosed subcutaneously in a latin square crossover design with at least 72 hours between dosing occasions. […] At least four mice were included at each dose level. Blood pressure (systolic (SAP), diastolic (DAP) and mean (MAP) and heart rate (HR, derived from blood pressure), were recorded using a digital data capture system linked with a DSITM Ponemah data acquisition and analysis system. The capture system allowed recording of the cardiovascular parameters whilst the mice were in individual cages. On the day of each test session the animals were weighed and a predose recording was performed for at least 60 min prior to dosing. Each mouse was returned to the home cage and the cardiovascular parameters were recorded for approximately 48 hours postdose. Blood pressure and HR were reported at the following time points: −30, −20, −10, 5, 15 and 30 min postdose and 1, 2, 6, 12, 18, 24, 30, 36, 42 and 48 hours postdose. Each time point was presented as the average value of five minute's recording prior to the time point. The monitoring period was selected to cover exposure to the test items both prior to and after Tmax.

A short description of data set [4]: Pharmacokinetic profile of CNP-38 after subcutaneous single-dose administration to cynomolgus monkeys. In kind it is in vivo. The note with it: single s.c. 40 μg/kg.
Procedure: This study was performed in order to test the pharmacokinetics of CNP-38 after subcutaneous (s.c.) administration in cynomolgus monkeys. Three male monkeys (2-4 years old, 3-5 kg) received a single s.c. injection at a dose of 40 μg/kg of CNP-38. Blood samples were collected at 5, 10, 15, 30, 45 min and 1, 2, 4, 8 hours upon dose.
Method: Plasma levels of CNP were analysed using a commercially available competitive radioimmuno-assay (RK-012-03, Phoenix Pharmaceuticals, CA). The assay was applied essentially as described by the manufacturer. The assay is based on competitive binding between 125I-labelled CNP (supplied in the kit) and unlabeled CNP (from study sample or calibrants) to an anti-CNP antibody. […] By measuring the amount of 125I-labelled CNP bound as a function of the concentration of peptide, it is possible to construct a calibration curve from which the concentration of peptide in the sample can be determined.
A few changes to the supplied assay protocol were made. These changes included using in-house CNP calibrant and QC samples to secure consistency between assay runs. […] Due to matrix effects in monkey plasma, the minimal required dilution was set at 1:10, yielding an assay range of 150-1080 μg/mL CNP.

As to BMN-111, the half-life in data set [1] is 20 min. Besides, in data set [2], the blood pressure effect entry is given as “mild hypotension”.
For the compound `CC[C@H](C)[C@@H]1NC(=O)[C@H](CCCNC(=N)N)NC(=O)[C@H](CC(=O)O)NC(=O)[C@H](CC(C)C)NC(=O)[C@H](CCCCN)NC(=O)[C@H](CC(C)C)NC(=O)CNC(=O)[C@H](Cc2ccccc2)NC(=O)[C@@H](NC(=O)CNC(=O)[C@H](CCCCN)NC(=O)[C@H](CO)NC(=O)[C@H](CC(C)C)NC(=O)CNC(=O)[C@H](CCCCN)NC(=O)[C@H](CCCCN)NC(=O)[C@H](CC(N)=O)NC(=O)[C@H](C)NC(=O)CNC(=O)[C@H](CCCCN)NC(=O)[C@H](Cc2ccc(O)cc2)NC(=O)[C@H](CCCCN)NC(=O)[C@H](CCCNC(=N)N)NC(=O)[C@H](C)NC(=O)[C@H](CC(N)=O)NC(=O)[C@@H]2CCCN2C(=O)[C@H](Cc2c[nH]cn2)NC(=O)[C@H](CCC(=O)O)NC(=O)[C@H](CCC(N)=O)NC(=O)[C@@H](N)CC(C)C)CSSC[C@@H](C(=O)O)NC(=O)CNC(=O)[C@H](CC(C)C)NC(=O)CNC(=O)[C@H](CO)NC(=O)[C@H](CCSC)NC(=O)[C@H](CO)NC(=O)CNC1=O` [CNP-38], the “effect on heart rate (HR)” value in data set [3] (up to 48 hours postdose) is reported as “not impacted”. Further, in data set [3] (5, 15 and 30 min post dose, CNP-38: 3 of 4 animals), the “effect on blood pressure (MAP)” value is “significant decrease in MAP”. Further, the “MAP 5 min post dose (mean±SD)” value in data set [3] (5 min post dose) is listed as 102.0 ± 7.5 mmHg. In data set [3] (15 min post dose), the “MAP 15 min post dose (mean±SD)” value stood at 89.5 ± 29.4 mmHg. Moreover, in data set [3] (30 min post dose), the “MAP 30 min post dose (mean±SD)” value is 99.5 ± 25.2 mmHg. Further, in data set [3] (predose), the “MAP predose (mean±SD)” value stood at 106.8 ± 13.4 mmHg. Besides, in data set [4], the tolerability entry is listed as “well tolerated”.

In general, half-life refers to how long it takes for the measured level to halve.
